{"source": "patent US20240376163A1", "about": "“PEPTIDE FOR INHIBITING CALCINEURIN AND USE THEREOF” (Seoul National University R&DB Foundation, priority 2023, published 2024)", "system": "Jurkat T cells", "assay": "mRNA sequencing of activated Jurkat T cells", "format": "cell-based, human", "details": "Jurkat T cells, P + I", "data": [{"compound": "C=CC[C@@H]1/C=C(\\C)C[C@H](C)C[C@H](OC)[C@H]2O[C@@](O)(C(=O)C(=O)N3CCCC[C@H]3C(=O)O[C@H](/C(C)=C/[C@@H]3CC[C@@H](O)[C@H](OC)C3)[C@H](C)[C@@H](O)CC1=O)[C@H](C)C[C@@H]2OC", "note": "[FK506, Tacrolimus, reference compound]", "values": [{"measurement": "MSMO1 FPKM", "value": 59.655, "unit": "FPKM"}, {"measurement": "MT2A FPKM", "value": 369.658, "unit": "FPKM"}, {"measurement": "MXD3 FPKM", "value": 17.861, "unit": "FPKM"}, {"measurement": "MYB FPKM", "value": 58.524, "unit": "FPKM"}, {"measurement": "MZB1 FPKM", "value": 22.015, "unit": "FPKM"}, {"measurement": "N4BP3 FPKM", "value": 1.739, "unit": "FPKM"}, {"measurement": "NAA16 FPKM", "value": 3.527, "unit": "FPKM"}, {"measurement": "NCKAP1 FPKM", "value": 8.582, "unit": "FPKM"}, {"measurement": "NCOA3 FPKM", "value": 9.949, "unit": "FPKM"}, {"measurement": "NDRG1 FPKM", "value": 126.361, "unit": "FPKM"}, {"measurement": "NDRG2 FPKM", "value": 2.881, "unit": "FPKM"}, {"measurement": "NEDD9 FPKM", "value": 3.748, "unit": "FPKM"}, {"measurement": "NFATC1 FPKM", "value": 3.793, "unit": "FPKM"}, {"measurement": "NFKB1 FPKM", "value": 34.242, "unit": "FPKM"}, {"measurement": "NFKB2 FPKM", "value": 49.22, "unit": "FPKM"}, {"measurement": "NLRC3 FPKM", "value": 7.789, "unit": "FPKM"}, {"measurement": "NME4 FPKM", "value": 16.395, "unit": "FPKM"}, {"measurement": "NOTCH2 FPKM", "value": 10.308, "unit": "FPKM"}, {"measurement": "NOTCH3 FPKM", "value": 0.902, "unit": "FPKM"}, {"measurement": "NPDC1 FPKM", "value": 4.328, "unit": "FPKM"}, {"measurement": "NR4A3 FPKM", "value": 1.927, "unit": "FPKM"}, {"measurement": "NREP FPKM", "value": 9.925, "unit": "FPKM"}, {"measurement": "NRP1 FPKM", "value": 14.572, "unit": "FPKM"}, {"measurement": "NSG1 FPKM", "value": 4.302, "unit": "FPKM"}, {"measurement": "NSMF FPKM", "value": 3.164, "unit": "FPKM"}, {"measurement": "NT5E FPKM", "value": 8.91, "unit": "FPKM"}, {"measurement": "NTRK1 FPKM", "value": 0.836, "unit": "FPKM"}, {"measurement": "ODC1 FPKM", "value": 245.466, "unit": "FPKM"}, {"measurement": "OPTN FPKM", "value": 12.958, "unit": "FPKM"}, {"measurement": "OSBPL5 FPKM", "value": 3.354, "unit": "FPKM"}, {"measurement": "PAM FPKM", "value": 1.483, "unit": "FPKM"}, {"measurement": "PCNA-AS1 FPKM", "value": 70.937, "unit": "FPKM"}, {"measurement": "PDCD1 FPKM", "value": 1.377, "unit": "FPKM"}, {"measurement": "PDGFA FPKM", "value": 3.25, "unit": "FPKM"}, {"measurement": "PDGFC FPKM", "value": 2.292, "unit": "FPKM"}, {"measurement": "PDIA6 FPKM", "value": 123.669, "unit": "FPKM"}, {"measurement": "PDLIM1 FPKM", "value": 6.874, "unit": "FPKM"}, {"measurement": "PELI2 FPKM", "value": 11.262, "unit": "FPKM"}, {"measurement": "PEX5L FPKM", "value": 1.428, "unit": "FPKM"}, {"measurement": "PHACTR2 FPKM", "value": 2.927, "unit": "FPKM"}, {"measurement": "PHLDB2 FPKM", "value": 3.898, "unit": "FPKM"}, {"measurement": "PI16 FPKM", "value": 17.07, "unit": "FPKM"}, {"measurement": "PKIG FPKM", "value": 12.411, "unit": "FPKM"}, {"measurement": "PKM FPKM", "value": 1736.037, "unit": "FPKM"}, {"measurement": "PLAC8 FPKM", "value": 3.158, "unit": "FPKM"}, {"measurement": "PLEC FPKM", "value": 21.747, "unit": "FPKM"}, {"measurement": "PLS3 FPKM", "value": 0.052, "unit": "FPKM"}, {"measurement": "POTEE FPKM", "value": 1.42, "unit": "FPKM"}, {"measurement": "POU2AF1 FPKM", "value": 2.274, "unit": "FPKM"}, {"measurement": "POU2F2 FPKM", "value": 3.317, "unit": "FPKM"}, {"measurement": "PPIF FPKM", "value": 50.291, "unit": "FPKM"}, {"measurement": "PPP1R15A FPKM", "value": 77.478, "unit": "FPKM"}, {"measurement": "PPP1R16B FPKM", "value": 29.659, "unit": "FPKM"}, {"measurement": "PRDM8 FPKM", "value": 39.913, "unit": "FPKM"}, {"measurement": "PRNP FPKM", "value": 39.685, "unit": "FPKM"}, {"measurement": "PSMB10 FPKM", "value": 104.49, "unit": "FPKM"}, {"measurement": "PTPN6 FPKM", "value": 20.906, "unit": "FPKM"}, {"measurement": "PTPN7 FPKM", "value": 93.59, "unit": "FPKM"}, {"measurement": "PXYLP1 FPKM", "value": 5.01, "unit": "FPKM"}, {"measurement": "QPRT FPKM", "value": 13.402, "unit": "FPKM"}, {"measurement": "RAB37 FPKM", "value": 2.455, "unit": "FPKM"}, {"measurement": "RASGRP1 FPKM", "value": 4.464, "unit": "FPKM"}, {"measurement": "RASGRP2 FPKM", "value": 3.002, "unit": "FPKM"}, {"measurement": "RB1 FPKM", "value": 62.321, "unit": "FPKM"}, {"measurement": "RCBTB2 FPKM", "value": 13.008, "unit": "FPKM"}, {"measurement": "RCOR2 FPKM", "value": 1.361, "unit": "FPKM"}, {"measurement": "RGS2 FPKM", "value": 3.365, "unit": "FPKM"}, {"measurement": "RHOU FPKM", "value": 1.51, "unit": "FPKM"}, {"measurement": "RNF19A FPKM", "value": 12.334, "unit": "FPKM"}, {"measurement": "RNF212 FPKM", "value": 1.059, "unit": "FPKM"}, {"measurement": "RORA FPKM", "value": 2.502, "unit": "FPKM"}, {"measurement": "RRAS2 FPKM", "value": 18.257, "unit": "FPKM"}, {"measurement": "RTN4R FPKM", "value": 2.449, "unit": "FPKM"}, {"measurement": "RUNX1 FPKM", "value": 37.963, "unit": "FPKM"}, {"measurement": "RUNX3 FPKM", "value": 23.624, "unit": "FPKM"}, {"measurement": "SASH3 FPKM", "value": 59.349, "unit": "FPKM"}, {"measurement": "SBK1 FPKM", "value": 9.239, "unit": "FPKM"}, {"measurement": "SCG2 FPKM", "value": 159.394, "unit": "FPKM"}, {"measurement": "SCHIP1 FPKM", "value": 1.535, "unit": "FPKM"}, {"measurement": "SEPT3 FPKM", "value": 1.089, "unit": "FPKM"}, {"measurement": "SEPT6 FPKM", "value": 55.091, "unit": "FPKM"}, {"measurement": "SEPT9 FPKM", "value": 55.265, "unit": "FPKM"}, {"measurement": "SERINC5 FPKM", "value": 3.184, "unit": "FPKM"}, {"measurement": "SERPINB8 FPKM", "value": 23.788, "unit": "FPKM"}, {"measurement": "SERPINE2 FPKM", "value": 3.936, "unit": "FPKM"}, {"measurement": "SERTAD1 FPKM", "value": 16.162, "unit": "FPKM"}, {"measurement": "SGK1 FPKM", "value": 76.683, "unit": "FPKM"}, {"measurement": "SH2D1A FPKM", "value": 23.649, "unit": "FPKM"}, {"measurement": "SH2D2A FPKM", "value": 20.658, "unit": "FPKM"}, {"measurement": "SH3TC1 FPKM", "value": 1.562, "unit": "FPKM"}, {"measurement": "SIVA1 FPKM", "value": 50.269, "unit": "FPKM"}, {"measurement": "SLAMF1 FPKM", "value": 0.217, "unit": "FPKM"}, {"measurement": "SLAMF7 FPKM", "value": 3.121, "unit": "FPKM"}, {"measurement": "SLAMF8 FPKM", "value": 5.282, "unit": "FPKM"}, {"measurement": "SLC22A1 FPKM", "value": 7.005, "unit": "FPKM"}, {"measurement": "SLC27A2 FPKM", "value": 41.996, "unit": "FPKM"}, {"measurement": "SLC29A4 FPKM", "value": 1.68, "unit": "FPKM"}, {"measurement": "SLC35E4 FPKM", "value": 0.952, "unit": "FPKM"}, {"measurement": "SLC35G2 FPKM", "value": 10.118, "unit": "FPKM"}]}]}
